Earlier results as cited in US20100310652A1, “COATED EXTENDED RELEASE PHARMACEUTICAL COMPOSITIONS OF LEVETIRACETAM” (Alembic Limited, priority 2007, published 2010).
≈ marks a conversion by molar mass, not a printed value.

Tests used:
[1] = in 15 minutes, three different pH media
[2] = highly permeable

aqueous solubility: 1.04 g/mL (≈ 6110 mM)
drug released [1]: more than 85%
permeability (F) [2]: > 90%
SMILES: CC[C@@H](C(N)=O)N1CCCC1=O [Levetiracetam, (−)-(S)-α-ethyl-2-oxo-1-pyrrolidine acetamide]
